In patent US11642314B2, “Mixtures of branched chain keto acids (BCKA) and method for the production of such mixtures” (Evonik Operations GmbH, priority 2018, dated 2023):

Assay: Water solubility at 20° C.
Format: physicochemical
Conditions: in water at 20° C.; calcium salts according to b99

Row | Structure (SMILES) | solubility [mg/mL]
1 | CCC(C)C(=O)C(=O)O (stereo not shown) [Keto isoleucine] | 24.3
2 | CC(C)CC(=O)C(=O)O [Keto leucine] | 11.9 to 12.5
3 | CC(C)C(=O)C(=O)O [Keto valine] | 65 to 70
4 | CSCCC(O)C(=O)O (stereo not drawn) [α-hydroxymethionine] | 52 to 63
